Consider two compounds from patent US12018253B2, “Method of detecting Polycomb Repressive Complex activity” (IMBA—INSTITUT FÜR MOLEKULARE BIOTECHNOLOGIE GMBH, priority 2017, dated 2024).

One assay relates to cPRC1-TetO-mESCs. In words: Chemical inhibition in cPRC1-TetO-mESCs (TetR-Cbx7 dual GFP/BFP reporter), flow cytometry without and with Dox. In kind it is cell-based, mouse. The settings on record: for initiation of reporter gene silencing: TetR-Cbx7 tethered, absence of Dox; for maintenance of reporter gene silencing (repression): presence of Dox (1 μg/ml), increasing concentrations of compound.

The next assay deals with T1, PRC2 (Mus musculus, UniProt Q61188).
T1 construct: endogenous in cells; host or cells: parental TetO-mESCs (mouse embryonic stem cells derived from haploid mESCs)
In words: Immuno blot of H3K27me3, Ezh2 and Cbx7 in parental TetO-mESCs treated with GSK126. In kind it is cell-based. The method, then: Nuclear extract from 10×10^6 mESCs was obtained by lysis in Buffer A (final: 25 mM Hepes ph 7.6, 5 mM MgCl2, 25 mM KCl, 0.05 mM EDTA, 10% Glycerol, 1 mM DTT, 1 mM PMSF, 1× Complete Mini protease inhibitor) followed by collection in RIPA buffer (final: 150 mM NaCl, 1% triton, 0.5% sodium deoxy-cholate, 0.1% SDS, 50 mM Tris pH 8.0). Nuclear extracts were homogenized by sonication in a Diagenode Bioruptor and concentration was determined by Bradford assay (Biorad). 20 μg/lane total protein was run on Novex Life Technology NuPAGE 4-12% Bis-Tris gels in Invitrogen NuPAGE MES SDS Running Buffer and transferred on a Merck Chemicals Immobilon-P Membrane (PVDF […]). The membrane was blocked (5% non-fat dry milk in 1×PBS, 0.1% Tween 20) and incubated with the following primary antibodies (5% non-fat dry milk in 1×PBS, 0.1% Tween 20): H3K27me3 (Diagenode, C15410195), Cbx7 (Abcam, ab21873), RYBP (Sigma, PRS2227), H2AK119ub (Cell Signaling, D27C4), Ezh2 (Active Motif, 39901). Finally, the membrane was incubated with corresponding secondary HRP coupled antibodies (5% non-fat dry milk in 1×PBS, 0.1% Tween 20), developed using Clarity Western ECL Substrate (Biorad) and imaged by a ChemiDoc XRS+ Imaging system (Biorad).

Non-standard residues stand in square brackets, D forms with d. Residues, ends and D or L forms follow the SMILES beside them. *: point of attachment. Benzoyl(4-tBu) = CC(C)(C)c1ccc(C(=O)*)cc1; Lys(Et2) = CCN(CC)CCCC[C@H](N)C(=O)O

T1 sequence (Q61188 whole entry): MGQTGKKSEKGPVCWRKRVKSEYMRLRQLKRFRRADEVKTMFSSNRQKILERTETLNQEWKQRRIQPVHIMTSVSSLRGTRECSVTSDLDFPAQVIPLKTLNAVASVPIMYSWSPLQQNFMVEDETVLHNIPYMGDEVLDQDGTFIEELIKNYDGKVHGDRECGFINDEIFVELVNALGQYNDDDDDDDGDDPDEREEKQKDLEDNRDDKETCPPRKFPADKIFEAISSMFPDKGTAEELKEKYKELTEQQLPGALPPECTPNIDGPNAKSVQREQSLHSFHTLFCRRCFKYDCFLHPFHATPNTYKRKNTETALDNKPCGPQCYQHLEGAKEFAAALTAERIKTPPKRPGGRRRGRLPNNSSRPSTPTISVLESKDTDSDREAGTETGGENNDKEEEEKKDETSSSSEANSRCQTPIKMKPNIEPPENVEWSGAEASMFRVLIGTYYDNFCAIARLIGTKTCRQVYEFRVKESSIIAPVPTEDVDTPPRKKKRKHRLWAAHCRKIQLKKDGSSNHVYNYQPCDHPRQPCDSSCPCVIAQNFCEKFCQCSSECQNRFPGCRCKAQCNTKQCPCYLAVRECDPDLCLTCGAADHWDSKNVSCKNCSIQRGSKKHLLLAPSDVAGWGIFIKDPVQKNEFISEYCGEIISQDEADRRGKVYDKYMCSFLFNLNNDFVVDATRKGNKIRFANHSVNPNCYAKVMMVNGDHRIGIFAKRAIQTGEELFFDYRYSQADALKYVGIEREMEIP
T1 sequence (Q921E6 whole entry partner): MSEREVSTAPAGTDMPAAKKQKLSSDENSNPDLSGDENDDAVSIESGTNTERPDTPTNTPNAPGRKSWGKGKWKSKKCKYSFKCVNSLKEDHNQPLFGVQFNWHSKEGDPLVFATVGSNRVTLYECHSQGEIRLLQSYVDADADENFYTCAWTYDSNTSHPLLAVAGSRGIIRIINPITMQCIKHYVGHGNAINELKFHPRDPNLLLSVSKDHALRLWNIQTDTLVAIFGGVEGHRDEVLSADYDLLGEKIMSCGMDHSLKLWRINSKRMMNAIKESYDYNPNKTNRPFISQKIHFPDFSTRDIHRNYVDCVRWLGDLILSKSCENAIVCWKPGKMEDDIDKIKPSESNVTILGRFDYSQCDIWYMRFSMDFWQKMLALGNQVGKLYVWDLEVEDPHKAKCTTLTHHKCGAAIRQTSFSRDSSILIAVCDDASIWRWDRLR
T1 sequence (Q80U70 whole entry partner): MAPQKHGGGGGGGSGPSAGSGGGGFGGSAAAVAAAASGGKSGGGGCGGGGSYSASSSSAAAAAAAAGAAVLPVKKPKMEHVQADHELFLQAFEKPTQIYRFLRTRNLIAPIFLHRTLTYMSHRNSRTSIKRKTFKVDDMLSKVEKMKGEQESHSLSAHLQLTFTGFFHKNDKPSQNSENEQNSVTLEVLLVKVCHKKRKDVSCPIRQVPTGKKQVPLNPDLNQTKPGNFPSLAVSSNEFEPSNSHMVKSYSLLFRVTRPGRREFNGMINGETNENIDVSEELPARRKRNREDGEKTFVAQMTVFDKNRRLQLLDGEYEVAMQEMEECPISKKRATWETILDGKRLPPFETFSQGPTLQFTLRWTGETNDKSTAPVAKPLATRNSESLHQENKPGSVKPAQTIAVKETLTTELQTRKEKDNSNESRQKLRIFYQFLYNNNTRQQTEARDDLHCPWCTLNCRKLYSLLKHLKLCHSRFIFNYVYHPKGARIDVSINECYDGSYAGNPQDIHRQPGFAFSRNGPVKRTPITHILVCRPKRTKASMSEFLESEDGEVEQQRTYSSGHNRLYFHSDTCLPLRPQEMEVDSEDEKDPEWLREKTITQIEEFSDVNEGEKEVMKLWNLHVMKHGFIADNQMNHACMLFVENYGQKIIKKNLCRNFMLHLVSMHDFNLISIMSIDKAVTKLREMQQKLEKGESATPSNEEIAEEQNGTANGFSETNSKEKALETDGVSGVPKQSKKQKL
T1 sequence (Q60972 whole entry partner): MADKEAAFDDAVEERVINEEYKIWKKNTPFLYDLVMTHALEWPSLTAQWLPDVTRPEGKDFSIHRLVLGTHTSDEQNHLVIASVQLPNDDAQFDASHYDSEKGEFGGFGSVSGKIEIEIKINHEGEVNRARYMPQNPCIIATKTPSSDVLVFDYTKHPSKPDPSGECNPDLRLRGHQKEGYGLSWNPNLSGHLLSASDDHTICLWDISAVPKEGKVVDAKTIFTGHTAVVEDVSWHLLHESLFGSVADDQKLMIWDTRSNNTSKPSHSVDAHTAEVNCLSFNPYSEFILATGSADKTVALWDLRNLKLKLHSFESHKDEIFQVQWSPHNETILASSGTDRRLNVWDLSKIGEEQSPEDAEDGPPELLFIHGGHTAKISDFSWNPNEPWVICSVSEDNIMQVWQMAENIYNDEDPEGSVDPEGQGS

Turning to `CC[C@H](C)n1cc(C)c2c(C(=O)NCc3c(C)cc(C)[nH]c3=O)cc(-c3ccc(N4CCNCC4)nc3)cc21` [GSK126], in the assay on cPRC1-TetO-mESCs, the “initiation of reporter gene silencing” value is on record as “did not disrupt” and the “maintenance of reporter gene silencing (repression)” value was “reduced by GSK126-treatment in a dose-dependent manner”. The “reduction in silencing, distal BFP reporter compared with proximal GFP reporter” value with cPRC1-TetO-mESCs (presence of Dox) was “more prominent at the distal BFP reporter than the proximal GFP promoter”. Besides, on PRC2 (GSK126-treated parental mESCs (4 μM per FIG. 10A)), the “H3K27me3 by Western blot” value was “undetectable”. In addition, the “inhibition of the catalytic activity of PRC2” value at PRC2 (parental TetO-mESCs, 4 μM GSK126, immuno blot) was “specific and reversible inhibition”. For the same compound, the “endogenous PRC2 and cPRC1 stability” value on PRC2 (parental TetO-mESCs, 4 μM GSK126, immuno blot of Ezh2 and Cbx7) is recorded as “without disrupting”.
Take `CCN(CC)CCCC[C@H](NC(=O)[C@H](CC(C)C)NC(=O)[C@H](C)NC(=O)[C@H](Cc1ccccc1)NC(=O)c1ccc(C(C)(C)C)cc1)C(=O)N[C@@H](CO)C(=O)OC` [UNC3866] ({Benzoyl(4-tBu)}-FAL[Lys(Et2)]S-OMe): in the assay with cPRC1-TetO-mESCs, the “initiation of reporter gene silencing” value is “Neither compound had a significant effect” and the “maintenance of reporter gene silencing (repression)” value is “disrupted only by UNC3866 treatment in a dose-dependent manner”.
